Results on one compound are retold here after article PMC5218480 (PLoS ONE, 2017).

The assay has as its system MV-4-11 cells. In words: Gene expression microarray analysis (Affymetrix PrimeView) and GSEA. The assay is classed as cell-based, human. Details: RFU PODN (11730768_x_at) / Fold change /veh PODN (11730768_x_at) / RFU LINC00158 (11744669_a_at) / Fold change /veh LINC00158 (11744669_a_at) / RFU DUSP10 (11751237_a_at) / Fold change /veh DUSP10 (11751237_a_at) / RFU ID3 (11757404_x_at) / Fold change /veh ID3 (11757404_x_at) / RFU PLEKHG5 (11737974_s_at) / Fold change /veh PLEKHG5 (11737974_s_at) / RFU LRRC4B (11730491_at) / Fold change /veh LRRC4B (11730491_at) / RFU GIMAP4 (11747438_a_at) / Fold change /veh GIMAP4 (11747438_a_at) / RFU KRT8 (11758183_x_at) / Fold change /veh KRT8 (11758183_x_at) / RFU CNN1 (11734310_a_at) / Fold change /veh CNN1 (11734310_a_at) / RFU VPS37D (11726825_at) / Fold change /veh VPS37D (11726825_at) / RFU C10orf10 (11716522_x_at) / Fold change /veh C10orf10 (11716522_x_at) / RFU KIR2DL2 /// KIR2DL4 /// KIR2DL5A /// KIR2DL5B /// KIR2DS1 /// KIR2DS2 /// KIR2DS3 /// KIR2DS4 /// KIR3DL3 /// KIR3DL3 /// KIR3DS1 (11738374_at) / Fold change /veh KIR2DL2 /// KIR2DL4 /// KIR2DL5A /// KIR2DL5B /// KIR2DS1 /// KIR2DS2 /// KIR2DS3 /// KIR2DS4 /// KIR3DL3 /// KIR3DL3 /// KIR3DS1 (11738374_at) / RFU C1QL1 (11718748_at) / Fold change /veh C1QL1 (11718748_at) / RFU TMPRSS4 (11747572_a_at) / Fold change /veh TMPRSS4 (11747572_a_at) / RFU HAMP (11756126_x_at) / Fold change /veh HAMP (11756126_x_at) / RFU RNFT2 (11725882_a_at) / Fold change /veh RNFT2 (11725882_a_at) / RFU NR4A2 (11747474_a_at) / Fold change /veh NR4A2 (11747474_a_at) / RFU ABCC12 (11746883_a_at) / Fold change /veh ABCC12 (11746883_a_at) / RFU TMEM136 (11760407_x_at) / Fold change /veh TMEM136 (11760407_x_at) / RFU CLDN22 /// WWC2 (11732394_at) / Fold change /veh CLDN22 /// WWC2 (11732394_at) / RFU HLA-DPB1 (11760878_x_at) / Fold change /veh HLA-DPB1 (11760878_x_at) / RFU SPINT1 (11716480_a_at) / Fold change /veh SPINT1 (11716480_a_at) / RFU GAP43 (11754022_s_at) / Fold change /veh GAP43 (11754022_s_at) / RFU A4GNT (11735810_at) / Fold change /veh A4GNT (11735810_at) / RFU PRB3 (11715151_x_at) / Fold change /veh PRB3 (11715151_x_at) / RFU TUBB4B (11761932_at) / Fold change /veh TUBB4B (11761932_at) / RFU CAPN14 (11732068_a_at) / Fold change /veh CAPN14 (11732068_a_at) / RFU TMCC2 (11721928_a_at) / Fold change /veh TMCC2 (11721928_a_at) / RFU IRGQ (11745062_a_at) / Fold change /veh IRGQ (11745062_a_at) / RFU FAM174B (11720279_a_at) / Fold change /veh FAM174B (11720279_a_at) / RFU TMPRSS4 (11748680_a_at) / Fold change /veh TMPRSS4 (11748680_a_at) / RFU FAM212B (11763350_a_at) / Fold change /veh FAM212B (11763350_a_at) / RFU PLEKHG5 (11743358_a_at) / Fold change /veh PLEKHG5 (11743358_a_at) / RFU ZSCAN30 (11745921_a_at) / Fold change /veh ZSCAN30 (11745921_a_at) / RFU CMKLR1 (11741424_a_at) / Fold change /veh CMKLR1 (11741424_a_at) / RFU LOC101060620 /// MAPK8IP1 (11723275_at) / Fold change /veh LOC101060620 /// MAPK8IP1 (11723275_at) / RFU SPTSSB (11747773_x_at) / Fold change /veh SPTSSB (11747773_x_at) / RFU PRSS12 (11739890_at) / Fold change /veh PRSS12 (11739890_at) / RFU BIN1 (11741810_x_at) / Fold change /veh BIN1 (11741810_x_at) / RFU WNT11 (11732464_a_at) / Fold change /veh WNT11 (11732464_a_at) / RFU C10orf10 (11716521_a_at) / Fold change /veh C10orf10 (11716521_a_at) / RFU C5orf56 (11738089_at) / Fold change /veh C5orf56 (11738089_at) / RFU CYB561 (11721691_x_at) / Fold change /veh CYB561 (11721691_x_at) / RFU ANKRD19P (11752326_a_at) / Fold change /veh ANKRD19P (11752326_a_at) / RFU OR2T12 /// OR2T33 /// OR2T8 (11738714_s_at) / Fold change /veh OR2T12 /// OR2T33 /// OR2T8 (11738714_s_at) / RFU VCAN (11748164_a_at) / Fold change /veh VCAN (11748164_a_at) / RFU JSRP1 (11732532_at) / Fold change /veh JSRP1 (11732532_at) / RFU KRTAP10-11 (11738290_x_at) / Fold change /veh KRTAP10-11 (11738290_x_at) / RFU MYO3A (11730013_a_at) / Fold change /veh MYO3A (11730013_a_at) / RFU EBF3 (11725865_a_at) / Fold change /veh EBF3 (11725865_a_at) / RFU CAMK2N1 (11719241_x_at) / Fold change /veh CAMK2N1 (11719241_x_at) / RFU C5orf56 (11738088_a_at) / Fold change /veh C5orf56 (11738088_a_at) / RFU OLFML3 (11715873_a_at) / Fold change /veh OLFML3 (11715873_a_at) / RFU LOC100653217 /// NTM (11731650_a_at) / Fold change /veh LOC100653217 /// NTM (11731650_a_at) / RFU MAPK11 (11762145_a_at) / Fold change /veh MAPK11 (11762145_a_at) / RFU FIZ1 (11724087_x_at) / Fold change /veh FIZ1 (11724087_x_at) / RFU OASL (11726364_x_at) / Fold change /veh OASL (11726364_x_at) / RFU SOX15 (11748057_x_at) / Fold change /veh SOX15 (11748057_x_at) / RFU CD79A (11719716_a_at) / Fold change /veh CD79A (11719716_a_at) / RFU HIST1H1D (11736915_at) / Fold change /veh HIST1H1D (11736915_at) / RFU CASKIN2 (11723855_a_at) / Fold change /veh CASKIN2 (11723855_a_at) / RFU LOC730098 (11760151_x_at) / Fold change /veh LOC730098 (11760151_x_at) / RFU OR4N2 (11742367_at) / Fold change /veh OR4N2 (11742367_at) / RFU PRRT2 (11749266_a_at) / Fold change /veh PRRT2 (11749266_a_at) / RFU SNX32 (11753110_a_at) / Fold change /veh SNX32 (11753110_a_at) / RFU CDHR5 (11726645_a_at) / Fold change /veh CDHR5 (11726645_a_at) / RFU RCAN1 (11760418_a_at) / Fold change /veh RCAN1 (11760418_a_at) / RFU FAM167A (11723789_a_at) / Fold change /veh FAM167A (11723789_a_at) / RFU FAM26E (11764081_at) / Fold change /veh FAM26E (11764081_at) / RFU ISYNA1 (11749810_s_at) / Fold change /veh ISYNA1 (11749810_s_at) / RFU ACY1 (11761880_at) / Fold change /veh ACY1 (11761880_at) / RFU 11764098_at / Fold change /veh 11764098_at / RFU SAMD14 (11745864_x_at) / Fold change /veh SAMD14 (11745864_x_at) / RFU NPB (11741838_a_at) / Fold change /veh NPB (11741838_a_at) / RFU TMPRSS6 (11731388_a_at) / Fold change /veh TMPRSS6 (11731388_a_at) / RFU KRTAP10-2 (11738614_at) / Fold change /veh KRTAP10-2 (11738614_at) / RFU ARHGAP8 /// PRR5-ARHGAP8 (11727945_x_at) / Fold change /veh ARHGAP8 /// PRR5-ARHGAP8 (11727945_x_at) / RFU KRTAP5-7 /// NADSYN1 (11734609_at) / Fold change /veh KRTAP5-7 /// NADSYN1 (11734609_at) / RFU RASL12 (11751679_a_at) / Fold change /veh RASL12 (11751679_a_at) / RFU CDKN2B (11736163_a_at) / Fold change /veh CDKN2B (11736163_a_at) / RFU PRF1 (11729649_at) / Fold change /veh PRF1 (11729649_at) / RFU, ZNF638 /// ZNF638-IT1 / Fold change vs veh, ZNF638 /// ZNF638-IT1 / RFU, PANK3 / Fold change vs veh, PANK3 / RFU, SH3YL1 / Fold change vs veh, SH3YL1 / RFU, ZEB2 / Fold change vs veh, ZEB2 / RFU, NRIP1 / Fold change vs veh, NRIP1 / RFU, PTTG1IP / Fold change vs veh, PTTG1IP / RFU, CAPN2 / Fold change vs veh, CAPN2 / RFU, MED14 / Fold change vs veh, MED14 / RFU, SNORA58 / Fold change vs veh, SNORA58 / RFU, C1orf63 / Fold change vs veh, C1orf63 / RFU, LRRFIP1 / Fold change vs veh, LRRFIP1 / RFU, NDUFAF7 / Fold change vs veh, NDUFAF7 / RFU, SLC12A2 / Fold change vs veh, SLC12A2 / RFU, IBTK / Fold change vs veh, IBTK / RFU, ESF1 / Fold change vs veh, ESF1 / Fold change vs veh, TMEM50B / RFU, TAOK1 / Fold change vs veh, TAOK1 / RFU, ACBD3 / Fold change vs veh, ACBD3 / RFU, TMA16 / Fold change vs veh, TMA16 / RFU, RWDD3 / Fold change vs veh, RWDD3 / RFU, BCAT1 / Fold change vs veh, BCAT1 / RFU, EDEM3 / Fold change vs veh, EDEM3 / RFU, TMEM33 / Fold change vs veh, TMEM33 / RFU, WDR75 / Fold change vs veh, WDR75 / RFU, AHCTF1 / Fold change vs veh, AHCTF1 / RFU, TFRC / Fold change vs veh, TFRC / RFU, ZDHHC17 / Fold change vs veh, ZDHHC17 / RFU, NOM1 / Fold change vs veh, NOM1 / RFU, ARL8B / Fold change vs veh, ARL8B / RFU, ZBTB11 / Fold change vs veh, ZBTB11 / RFU, TAMM41 / Fold change vs veh, TAMM41 / RFU, KIAA1704 /// LOC100996395 / Fold change vs veh, KIAA1704 /// LOC100996395 / RFU, ING1 / Fold change vs veh, ING1 / RFU, TRMT61B / Fold change vs veh, TRMT61B / RFU, FUBP3 / Fold change vs veh, FUBP3 / RFU, TP53 / Fold change vs veh, TP53 / RFU, TNKS2 / Fold change vs veh, TNKS2 / RFU, ZFP14 / Fold change vs veh, ZFP14 / RFU, ACTR2 / Fold change vs veh, ACTR2 / RFU, PPP3R1 / Fold change vs veh, PPP3R1 / RFU, PIK3R1 / Fold change vs veh, PIK3R1 / RFU, HNRNPA1 / Fold change vs veh, HNRNPA1 / RFU, RNF170 / Fold change vs veh, RNF170 / RFU, ZNF28 / Fold change vs veh, ZNF28 / RFU, RNGTT / Fold change vs veh, RNGTT / RFU, OGT / Fold change vs veh, OGT / RFU, BRD1 / Fold change vs veh, BRD1 / RFU, MARS / Fold change vs veh, MARS / RFU, ZNF655 / Fold change vs veh, ZNF655 / RFU, FAHD1 / Fold change vs veh, FAHD1 / RFU, BDP1 / Fold change vs veh, BDP1 / RFU, LRRCC1 / Fold change vs veh, LRRCC1 / RFU, ARID1A / Fold change vs veh, ARID1A / RFU, ZNF146 / Fold change vs veh, ZNF146 / RFU, ZNF330 / Fold change vs veh, ZNF330 / RFU, GPN3 / Fold change vs veh, GPN3 / RFU, C9orf123 / Fold change vs veh, C9orf123 / RFU, N4BP2L2 / Fold change vs veh, N4BP2L2 / RFU, ARFIP1 / Fold change vs veh, ARFIP1 / RFU, FAM179B / Fold change vs veh, FAM179B / RFU, BCL10 / Fold change vs veh, BCL10 / RFU, UHRF1BP1L / Fold change vs veh, UHRF1BP1L / RFU, BET1 / Fold change vs veh, BET1 / RFU, CNOT2 / Fold change vs veh, CNOT2 / RFU, ZNF268 / Fold change vs veh, ZNF268 / Fold change vs veh, ZNF507 / RFU, DGCR2 / Fold change vs veh, DGCR2 / RFU, WDSUB1 / Fold change vs veh, WDSUB1 / Fold change vs veh, HSP90B1 /// MIR3652 / RFU, ADSS / Fold change vs veh, ADSS / RFU, GK / Fold change vs veh, GK / RFU, ZNF148 / Fold change vs veh, ZNF148 / RFU, TAF9 / Fold change vs veh, TAF9 / RFU, SLC1A5 / Fold change vs veh, SLC1A5 / RFU, SLMO2 / Fold change vs veh, SLMO2 / RFU, ABCC4 / Fold change vs veh, ABCC4 / RFU, LOC101060439 /// RAP1B / Fold change vs veh, LOC101060439 /// RAP1B / RFU, RFX7 / Fold change vs veh, RFX7 / RFU, GTPBP10 / Fold change vs veh, GTPBP10 / RFU, CNEP1R1 / Fold change vs veh, CNEP1R1 / RFU, BIVM-ERCC5 /// ERCC5 / Fold change vs veh, BIVM-ERCC5 /// ERCC5 / RFU, ILF3 / Fold change vs veh, ILF3 / RFU 11762660_at / Fold change /veh 11762660_at / RFU VCAN (11757783_s_at) / Fold change /veh VCAN (11757783_s_at) / RFU DDX43 (11728927_at) / Fold change /veh DDX43 (11728927_at) / RFU KRT8 (11758188_x_at) / Fold change /veh KRT8 (11758188_x_at) / RFU NKD1 (11759106_at) / Fold change /veh NKD1 (11759106_at) / RFU SRD5A1 (11742802_a_at) / Fold change /veh SRD5A1 (11742802_a_at) / RFU TPSAB1 /// TPSB2 (11721975_s_at) / Fold change /veh TPSAB1 /// TPSB2 (11721975_s_at) / RFU GSTM3 (11746129_a_at) / Fold change /veh GSTM3 (11746129_a_at) / RFU IL23R (11737362_x_at) / Fold change /veh IL23R (11737362_x_at) / RFU TMEM51 (11727254_a_at) / Fold change /veh TMEM51 (11727254_a_at) / RFU PIWIL2 (11732686_x_at) / Fold change /veh PIWIL2 (11732686_x_at) / RFU ORM1 (11744905_x_at) / Fold change /veh ORM1 (11744905_x_at) / RFU CCDC152 (11743942_at) / Fold change /veh CCDC152 (11743942_at) / RFU ECM1 (11717891_a_at) / Fold change /veh ECM1 (11717891_a_at) / RFU IL23R (11748794_a_at) / Fold change /veh IL23R (11748794_a_at) / RFU TNFAIP8L3 (11732012_x_at) / Fold change /veh TNFAIP8L3 (11732012_x_at) / RFU MBOAT4 (11741988_at) / Fold change /veh MBOAT4 (11741988_at) / RFU 11764193_at / Fold change /veh 11764193_at / RFU TMEM53 (11763286_at) / Fold change /veh TMEM53 (11763286_at) / RFU MAGEB2 (11727129_at) / Fold change /veh MAGEB2 (11727129_at) / RFU TMEM200A (11744735_a_at) / Fold change /veh TMEM200A (11744735_a_at) / RFU CCDC152 (11751479_a_at) / Fold change /veh CCDC152 (11751479_a_at) / RFU FAM211A (11726209_a_at) / Fold change /veh FAM211A (11726209_a_at) / RFU RGS16 (11746705_a_at) / Fold change /veh RGS16 (11746705_a_at) / RFU VCAN (11755009_s_at) / Fold change /veh VCAN (11755009_s_at) / RFU RHOB (11743442_s_at) / Fold change /veh RHOB (11743442_s_at) / RFU RGS16 (11720943_a_at) / Fold change /veh RGS16 (11720943_a_at) / RFU RGS16 (11720944_at) / Fold change /veh RGS16 (11720944_at) / RFU, VPS4B / Fold change vs veh, VPS4B / RFU, CREB1 / Fold change vs veh, CREB1 / RFU, DNAJC13 / Fold change vs veh, DNAJC13 / RFU, GNAQ / Fold change vs veh, GNAQ / RFU, CDK5R1 / Fold change vs veh, CDK5R1 / RFU, ZRANB3 / Fold change vs veh, ZRANB3 / RFU, CUL4A / Fold change vs veh, CUL4A / RFU, CCNY / Fold change vs veh, CCNY / RFU, UFL1 / Fold change vs veh, UFL1 / RFU, COG3 / Fold change vs veh, COG3 / RFU, DIAPH2 / Fold change vs veh, DIAPH2 / RFU, SKA2 / Fold change vs veh, SKA2 / RFU, AFF3 / Fold change vs veh, AFF3 / RFU, LMF1 / Fold change vs veh, LMF1 / RFU, IPO11 / Fold change vs veh, IPO11 / RFU, DFFB / Fold change vs veh, DFFB / RFU, FOXP1 / Fold change vs veh, FOXP1 / RFU, CARD8 / Fold change vs veh, CARD8 / RFU, STRN3 / Fold change vs veh, STRN3 / RFU, ADK / Fold change vs veh, ADK / RFU, RASSF2 / Fold change vs veh, RASSF2 / RFU, WIPF1 / Fold change vs veh, WIPF1 / RFU, LARP1B / Fold change vs veh, LARP1B / RFU, RASA1 / Fold change vs veh, RASA1 / RFU, RB1 / Fold change vs veh, RB1 / RFU, PPFIA1 / Fold change vs veh, PPFIA1 / RFU, MAT2A / Fold change vs veh, MAT2A / RFU, CCT5 / Fold change vs veh, CCT5 / RFU, WDR92 / Fold change vs veh, WDR92 / RFU, CUX1 / Fold change vs veh, CUX1 / RFU, TTC7A / Fold change vs veh, TTC7A / RFU, TMEM135 / Fold change vs veh, TMEM135 / RFU, DEPTOR / Fold change vs veh, DEPTOR / RFU, CPM / Fold change vs veh, CPM / RFU, DNAJB6 / Fold change vs veh, DNAJB6 / RFU, CACNA2D3 / Fold change vs veh, CACNA2D3 / RFU, DTX4 / Fold change vs veh, DTX4 / RFU, TFCP2 / Fold change vs veh, TFCP2 / RFU, GMCL1 /// GMCL1P1 / Fold change vs veh, GMCL1 /// GMCL1P1 / RFU, AEBP2 / Fold change vs veh, AEBP2 / RFU, SNHG1 /// SNORD22 /// SNORD25 /// SNORD26 /// SNORD27 /// SNORD28 /// SNORD29 /// SNORD31 / Fold change vs veh, SNHG1 /// SNORD22 /// SNORD25 /// SNORD26 /// SNORD27 /// SNORD28 /// SNORD29 /// SNORD31 / Fold change (Aza/veh), C12orf56 (ProbeSet 11735607_a_at) / Fold change (ACY-1035/veh), C12orf56 (ProbeSet 11735607_a_at) / Fold change (Aza/veh), FGFR1OP (ProbeSet 11751329_s_at) / Fold change (ACY-1035/veh), FGFR1OP (ProbeSet 11751329_s_at) / Fold change (Aza/veh), VPS36 (ProbeSet 11739960_a_at) / Fold change (ACY-1035/veh), VPS36 (ProbeSet 11739960_a_at) / RFU SYPL1 (11715823_x_at) / Fold change /veh SYPL1 (11715823_x_at) / RFU IGFBP7 (11715501_s_at) / Fold change /veh IGFBP7 (11715501_s_at) / RFU REEP3 (11722064_at) / Fold change /veh REEP3 (11722064_at) / RFU IGLL1 (11728026_x_at) / Fold change /veh IGLL1 (11728026_x_at): dose or concentration left out as unconfirmed. To be noted: ProbeSet 11763166_a_at; LIST B.

With `Nc1ncn([C@@H]2O[C@H](CO)[C@@H](O)[C@H]2O)c(=O)n1` [azacitidine], the “RFU, MARS” value is 35.99 RFU.
